Reference: the NIST ThermoML archive (doi:10.1016/j.jct.2010.06.011)

Experiments:
[1] = Liquid, Vibrating tube method
[2] = xn = mol fraction of the nth substance listed; settings: Liquid, Vibrating tube method, x2 = 0

COC(=O)OC [dimethyl carbonate]
mass density [kg/m3], [1]
Settings | 100 kPa | 5000 kPa | 10000 kPa | 20000 kPa | 30000 kPa | 40000 kPa
293.15 K | 1069.8 | 1074.4 | 1078.6 | 1086.9 | 1094.5 | 1101.9
298.15 K | 1063.2 | 1068 | 1072.4 | 1080.8 | 1088.7 | 1096.2
303.15 K | 1056.5 | 1061.3 | 1066 | 1074.7 | 1082.9 | 1090.4
308.15 K | 1049.8 | 1054.6 | 1059.4 | 1068.5 | 1077 | 1084.8
313.15 K | 1043 | 1048.1 | 1053 | 1062.3 | 1071 | 1079

CCCCCC [hexane] + COC(=O)OC
mass density [kg/m3], [2]
Settings | 100 kPa | 5000 kPa | 10000 kPa | 20000 kPa | 30000 kPa | 40000 kPa
293.15 K | 659.4 | 664.8 | 669.7 | 678.7 | 686.9 | 694.3
298.15 K | 654.9 | 660.4 | 665.5 | 674.8 | 683.2 | 690.7
303.15 K | 650.2 | 655.8 | 661.2 | 670.8 | 679.3 | 687
308.15 K | 645.7 | 651.5 | 657 | 666.9 | 675.8 | 683.6
313.15 K | 640.9 | 647 | 652.8 | 663.1 | 672.1 | 680.2

CCCCCC [hexane]
mass density [kg/m3], [1]
Settings | 100 kPa | 5000 kPa | 10000 kPa | 20000 kPa | 30000 kPa | 40000 kPa
293.15 K | 659.4 | 664.8 | 669.7 | 678.7 | 686.9 | 694.3
298.15 K | 654.9 | 660.4 | 665.5 | 674.8 | 683.2 | 690.7
303.15 K | 650.2 | 655.8 | 661.2 | 670.8 | 679.3 | 687
308.15 K | 645.7 | 651.5 | 657 | 666.9 | 675.8 | 683.6
313.15 K | 640.9 | 647 | 652.8 | 663.1 | 672.1 | 680.2
